# Columns and labels:
# [1] = target: Human immunodeficiency virus type 1 protease (Human immunodeficiency virus 1, UniProt Q72874); test: Inhibitory activity against HIV-1 protease cleavage of [V-S-Q-N-(beta-naphthylalanine)-P-I-V)
# CEM-SS [2] = test: Inhibitory activity against HIV-1 virus replication as determined by an XTT endpoint by 50%; assay type: functional; settings: Homo sapiens, read-out: ED50 (the source's name)
# [3] = Lipophilicity index (RP-HPLC pH 7); assay type: physicochemical; settings: buffer
# H9 = test: Inhibitory activity against human T cell lymphoma (H9) growth by 50 %.; assay type: functional
# [4] = Plasma elimination half life was determined for the compound; assay type: ADME, cell-free
# [5] = In vitro therapeutic index was evaluated; assay type: functional
# CEM-SS [6] = test: Inhibitory activity against HIV-2 virus replication as determined by an XTT endpoint by 50%; assay type: functional; settings: Homo sapiens, read-out: ED50 (the source's name)
half-life [4] [h],Compound,IC50 [1] [µM],EC50 (CEM-SS [2]) [µM],Log k' [3],CC50 (H9) [µM],Therapeutic index [5],EC50 (CEM-SS [6]) [µM]
,CC(C)(C)OC(=O)N[C@@H](Cc1ccccc1)[C@H](O)CNC[C@@H](O)[C@H](Cc1ccc(O)cc1)NC(=O)OC(C)(C)C,0.1,0.09,0.79,32,,
,CC(C)(C)OC(=O)N[C@@H](Cc1ccccc1)[C@H](O)CNC[C@@H](O)[C@H](Cc1ccc2ncccc2c1)NC(=O)OC(C)(C)C,0.13,0.03,,15,,
4,CC(C)(C)OC(=O)N[C@@H](Cc1ccccc1)[C@H](O)CNC[C@@H](O)[C@H](Cc1ccccc1)NC(=O)OC(C)(C)C,,0.08,1.39,8.5,100,0.12
,CC(C)(C)OC(=O)N[C@@H](Cc1ccccc1)[C@H](O)CNC[C@@H](O)[C@H](Cc1ccc(OCc2nc3ccccc3o2)cc1)NC(=O)OC(C)(C)C,0.32,0.11,1.69,1.9,,
,CC(C)(C)OC(=O)N[C@@H](Cc1ccccc1)[C@H](O)CNC[C@@H](O)[C@H](Cc1ccc(OCCCc2nc3ccccc3o2)cc1)NC(=O)OC(C)(C)C,0.28,1.5,1.98,5.9,,
,CC(C)(C)OC(=O)N[C@@H](Cc1ccccc1)[C@H](O)CNC[C@@H](O)[C@H](Cc1ccc(OCCN2CCOC2=O)cc1)NC(=O)OC(C)(C)C,0.04,0.08,0.82,52,,
,CC(C)(C)OC(=O)N[C@@H](Cc1ccccc1)[C@H](O)CNC[C@@H](O)[C@H](Cc1ccc(CCC(=O)N2CCOCC2)cc1)NC(=O)OC(C)(C)C,0.085,0.21,1.03,58,,
,COCCCCOc1ccc(C[C@H](NC(=O)OC(C)(C)C)[C@H](O)CNC[C@@H](O)[C@H](Cc2ccccc2)NC(=O)OC(C)(C)C)cc1,0.05,< 0.03,1.6,12,,
,CC(C)(C)OC(=O)N[C@@H](Cc1ccccc1)[C@H](O)CNC[C@@H](O)[C@H](Cc1ccc(OCC(O)c2ccccn2)cc1)NC(=O)OC(C)(C)C (stereo partly specified),0.11,0.2,0.81,58,,
,CC(C)(C)OC(=O)N[C@@H](Cc1ccccc1)[C@H](O)CNC[C@@H](O)[C@H](Cc1ccccc1O)NC(=O)OC(C)(C)C,0.3,1.2,1.16,17,,
,CN1CCN(CCOc2ccc(C[C@H](NC(=O)OC(C)(C)C)[C@H](O)CNC[C@@H](O)[C@H](Cc3ccccc3)NC(=O)OC(C)(C)C)cc2)C1=O,0.06,0.05,1.04,50,,
,CC(C)(C)OC(=O)N[C@@H](Cc1ccccc1)[C@H](O)CNC[C@@H](O)[C@H](Cc1ccc(OCCN2CCOCC2)cc1)NC(=O)OC(C)(C)C,0.1,0.07,1.18,25,,
,CC(C)(C)OC(=O)N[C@@H](Cc1ccccc1)[C@H](O)CNC[C@@H](O)[C@H](Cc1cccc(O)c1)NC(=O)OC(C)(C)C,0.2,0.15,0.92,17,,
,CC(C)(C)OC(=O)N[C@@H](Cc1ccccc1)[C@H](O)CNC[C@@H](O)[C@H](Cc1ccc(OCCO)cc1)NC(=O)OC(C)(C)C,0.064,0.06,0.82,56,,
,CC(C)(C)OC(=O)N[C@@H](Cc1ccccc1)[C@H](O)CNC[C@@H](O)[C@H](Cc1ccc(COC(=O)N2CCOCC2)cc1)NC(=O)OC(C)(C)C,0.03,0.04,1.23,27,,
,CC(O)COc1ccc(C[C@H](NC(=O)OC(C)(C)C)[C@H](O)CNC[C@@H](O)[C@H](Cc2ccccc2)NC(=O)OC(C)(C)C)cc1 (stereo partly specified),0.049,0.07,1.02,22,,
,CC(C)(C)OC(=O)N[C@@H](Cc1ccccc1)[C@H](O)CNC[C@@H](O)[C@H](Cc1ccc(OCC(=O)N2CCCCC2)cc1)NC(=O)OC(C)(C)C,0.09,0.07,1.33,17,,
,CN(C)C(=O)OCCOc1ccc(C[C@H](NC(=O)OC(C)(C)C)[C@H](O)CNC[C@@H](O)[C@H](Cc2ccccc2)NC(=O)OC(C)(C)C)cc1,0.04,0.12,1.24,16,,
,CC(C)(C)OC(=O)N[C@@H](Cc1ccccc1)[C@H](O)CNC[C@@H](O)[C@H](Cc1cccc(OCc2ccccc2)c1)NC(=O)OC(C)(C)C,0.14,0.09,2.04,1.9,,
,CC(C)(C)OC(=O)N[C@@H](Cc1ccccc1)[C@H](O)CNC[C@@H](O)[C@H](Cc1ccc(OCCCN2CCOCC2=O)cc1)NC(=O)OC(C)(C)C,0.08,0.056,0.92,59,,
,CC(C)(C)OC(=O)N[C@@H](Cc1ccccc1)[C@H](O)CNC[C@@H](O)[C@H](Cc1ccc(OCC(=O)O)cc1)NC(=O)OC(C)(C)C,0.15,74,0.12,> 100,,
,CC(C)(C)OC(=O)N[C@@H](Cc1ccccc1)[C@H](O)CNC[C@@H](O)[C@H](Cc1ccc(OCCc2ccccn2)cc1)NC(=O)OC(C)(C)C,0.05,0.04,1.39,5,,
,CC(C)(C)OC(=O)N[C@@H](Cc1ccccc1)[C@H](O)CNC[C@@H](O)[C@H](Cc1ccc(OCC(=O)N2CCOCC2)cc1)NC(=O)OC(C)(C)C,0.1,0.1,0.87,> 100,,
,CC(C)(O)COc1ccc(C[C@H](NC(=O)OC(C)(C)C)[C@H](O)CNC[C@@H](O)[C@H](Cc2ccccc2)NC(=O)OC(C)(C)C)cc1,0.12,0.09,1.22,49,,
,COCCOc1ccc(C[C@H](NC(=O)OC(C)(C)C)[C@H](O)CNC[C@@H](O)[C@H](Cc2ccccc2)NC(=O)OC(C)(C)C)cc1,0.072,0.07,1.19,20,,
,CC(C)(C)OC(=O)N[C@@H](Cc1ccccc1)[C@H](O)CNC[C@@H](O)[C@H](Cc1ccncc1)NC(=O)OC(C)(C)C,0.4,0.54,0.8,67,,
,CC(C)(C)OC(=O)N[C@@H](Cc1ccccc1)[C@H](O)CNC[C@@H](O)[C@H](Cc1ccc(OCCOc2cccnc2)cc1)NC(=O)OC(C)(C)C,0.06,0.04,1.25,18,,
,CC(C)(C)OC(=O)N[C@@H](Cc1ccccc1)[C@H](O)CNC[C@@H](O)[C@H](Cc1ccc(OCCn2ccnc2)cc1)NC(=O)OC(C)(C)C,0.09,0.05,0.96,22,,
,CC(C)(C)OC(=O)N[C@@H](Cc1ccccc1)[C@H](O)CNC[C@@H](O)[C@H](Cc1ccc(OCc2ccccc2)cc1)NC(=O)OC(C)(C)C,0.3,0.17,2,1.8,,
,CC(C)(C)OC(=O)N[C@@H](Cc1ccccc1)[C@H](O)CNC[C@@H](O)[C@H](Cc1ccc(OCCCN2CCOCC2)cc1)NC(=O)OC(C)(C)C,0.086,0.04,1.28,17,,

# Reference: ChEMBL document CHEMBL1129312, “Aminodiol HIV protease inhibitors. Synthesis and structure-activity relationships of P1/P1' compounds: correlation between lipophilicity and cytotoxicity” (J Med Chem, 1996)
